Source: PMC7251123, “CX-5461 activates the DNA damage response and demonstrates therapeutic efficacy in high-grade serous ovarian cancer” (Nature Communications, 2020)

Experiments:
OV90 = assay: Cell proliferation dose response (IncuCyte ZOOM), 48 h; format: cell-based; conditions: Homo sapiens, OV-90; OV90, 48 h; read-out: GI50 (concentration inducing 50% reduction in cell proliferation)
Experimental: (§1) The in vitro effects of CX-5461 on human OVCA cells were evaluated using a panel of 32 established human OVCA cell lines. These cell lines were selected to be representative of a range of histologic OVCA subtypes (Supplementary Table 1). Increasing concentrations (1 nM–10 μM) of CX-5461 were used to assess the concentration of drug that induced a 50% reduction in cell proliferation (GI50) at 48 hours (h). […] There was no statistically significant correlation between TP53 mutation status and sensitivity to CX-5461 (Supplementary Table 1, Fig. 1b). The efficacy of growth inhibition by CX-5461 correlated with a higher rate of basal rDNA transcription in the sensitive compared with the resistant OVCA cell lines (Fig. 1c).
(§2) Fig. 1 Sensitivity of ovarian cancer (OVCA) cell lines to CX-5461. a CX-5461 doses that induce 50% growth inhibition (GI50) at 48 hours. Error bars represent mean ± standard deviation (SD). […]
(§3) For assessing OVCA cells’ sensitivity to CX-5461, dose response curves were generated for each cell line by plating cells in 96-well plates, culturing them for 24 hours and then treating them with either vehicle or increasing concentrations of drug (0, 0.001, 0.003, 0.01, 0.03, 0.1, 0.3, 1, 3, 10 and 30 μM CX-5461) for 48 h. Cell number was assessed using the IncuCyte ZOOM imaging system (Essen BioScience). […] During this time the degree of confluency was measured every 24 h. […]

OVCAR3 = assay: as above; format: cell-based; conditions: Homo sapiens, OVCAR-3; OVCAR3, 48 h; read-out: GI50 (concentration inducing 50% reduction in cell proliferation)
Experimental: as §1, §2, §3

OVCAR4 cells = assay: Mini drug screen, proliferation by DAPI staining and Cellomics imaging; format: cell-based, human; conditions: OVCAR4
From the text: Since CX-5461 in combination with BMN-673 lead to increased DNA damage, we hypothesized that combining CX-5461 with PARPi or other DNA repair and DDR inhibitors (DDR therapy) may improve the efficacy of treating HGSOC. We therefore performed a focused/boutique drug screen in the HR-proficient OVCAR4 cells for DNA repair and DDR inhibitors that may cooperate with CX-5461 to enhance growth arrest (Fig. 8a). […] We next examined the cooperation between CX-5461 and BMN-673 or ATRi in inducing cell death in three additional HR-proficient HGSOC cell lines (Supplementary Fig. 3C) and identified robust and significant interactions between BMN-673 and CX-5461 in inducing cell death compared with the ATRi (VE-821) (Fig. 8b). In addition, dose-response curves of BMN-673 in the presence or absence of CX-5461 confirmed CX-5461’s strong interaction with BMN-673 (Fig. 8c).
Colour-coding denotes the level of proliferation as measured by DAPI staining and imaging using Cellomics (green denotes reduced proliferation). Dose response of single drug treatments were corrected for vehicle control and the combination was corrected for response to 80 nM CX-5461, the average values of n = 5 are presented. The combination of CX-5461 with BMN-673 or ATRi is highlighted by yellow boxes. b Quantitation of SubG1 DNA content by PI staining of cells treated with vehicle, 100 nM CX-5461, 1 μM VE-821, 100 nM BMN-673 or in combination for 7 days (n = 3 biologically independent experiments). Error bars represent mean ± SEM. Flow cytometry gating strategy is shown in Supplementary Fig. 3D. C) Representative BMN-673 dose response curves ± 30 nM CX-5461. Cell proliferation was measured using SRB assays at 5 days post-treatment. Dose response curves for BMN-673 were corrected for DMSO treatment control and the combination was corrected for response to 30 nM CX-5461. Representative of three biological replicates. Error bars represent mean ± SEM of n = 5 technical replicates. d BrdU cell cycle analysis of cells treated with vehicle, 1 μM CX-5461, 100 nM BMN-673 or in combination for 72 h as described in Fig. 3b and Supplementary Fig. 3D. n = 3, mean ± SEM. e In vitro proliferation time-course assessed by cell confluency using IncuCyte ZOOM. Representative of n = 3 biological replicates, mean ± SEM of five technical replicates. Dashed lines denote re-supplement of media with drugs. f CX-5461 and BMN-673 cooperate in inhibiting clonogenic survival. Representative image of n = 6 biologically independent experiments for OVCAR8 and OVCAR8 RAD51C KO cells and n = 3 biological replicates for FT282 cells, mean ± SEM. g Clonogenic assay of OV90 cells. n = 3 technical replicates. Statistical analysis (in b, d and f) was performed using a two-sided one-way ANOVA, Tukey’s multiple comparisons test (adjusted p-values are shown). TEXT PRINTED IN THE PICTURE: (a) CX-5461: GI20 80 nM

Cc1cnc(CNC(=O)c2c(=O)c3ccc(N4CCCN(C)CC4)nc3n3c2sc2ccccc23)cn1 [CX-5461]
GI50 (OV90): 5170 nM | GI50 (OVCAR3): 12 nM | GI20 (OVCAR4 cells): 80 nM
